In series [1] the test system is NCI-H460. The series can be described thus: Cytotoxicity against human NCI-H460 cells assessed as concentration that causes inhibition of cell viability by <=20% incubated for 24 hrs by MTT assay. The class given is cell-based. The following applies: nci-h460, 24 h. In general terms: Formazan colour is commonly taken as a measure of viable cells.
The nature of series [2]: Cytotoxicity against human NCI-H460/MX20 cells assessed as concentration that causes inhibition of cell viability by <=20% incubated for 24 hrs by MTT assay. In kind it is cell-based.
In series [3] the target is T1, Broad substrate specificity ATP-binding cassette transporter ABCG2 (Homo sapiens, UniProt Q9UNQ0).
T1 sequence (Q9UNQ0 whole entry): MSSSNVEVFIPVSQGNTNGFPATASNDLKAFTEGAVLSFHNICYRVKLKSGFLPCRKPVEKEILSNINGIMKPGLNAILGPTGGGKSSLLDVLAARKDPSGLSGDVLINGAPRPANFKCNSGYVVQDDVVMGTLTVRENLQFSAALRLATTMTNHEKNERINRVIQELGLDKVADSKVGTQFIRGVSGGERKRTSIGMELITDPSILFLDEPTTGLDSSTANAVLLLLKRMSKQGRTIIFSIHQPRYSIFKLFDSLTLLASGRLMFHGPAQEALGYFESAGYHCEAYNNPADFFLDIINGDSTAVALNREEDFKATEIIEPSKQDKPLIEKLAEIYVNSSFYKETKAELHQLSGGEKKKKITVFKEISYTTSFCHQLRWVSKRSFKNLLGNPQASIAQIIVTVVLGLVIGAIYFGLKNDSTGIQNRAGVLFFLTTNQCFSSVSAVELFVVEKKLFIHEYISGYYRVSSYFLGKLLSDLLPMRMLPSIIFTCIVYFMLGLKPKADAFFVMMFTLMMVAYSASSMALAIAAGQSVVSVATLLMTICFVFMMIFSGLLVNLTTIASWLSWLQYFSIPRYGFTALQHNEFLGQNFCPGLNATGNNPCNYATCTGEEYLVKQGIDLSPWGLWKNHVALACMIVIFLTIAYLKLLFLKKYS
In words: Reversal of ABCG2-mediated multidrug resistance in human NCI-H460/MX20 cells assessed as potentiation of mitoxantrone-induced cytotoxicity by measuring inhibition of cell proliferation at 25 uM pretreated for 2 hrs followed by mitoxantrone addition and measured after 44 hrs by MTT assay (reference value: 24 +/- 3%). The class given is cell-based. The following applies: for inhibition (INH): 25 µM.

In series [4] the test system is NCI-H460. The series can be described thus: Cytotoxicity against human NCI-H460 cells assessed as inhibition of cell viability incubated for 2 hrs by MTT assay. The settings on record: NCI-H460, 2 h. In kind it is cell-based.
Series [5] can be described thus: Cytotoxicity against human NCI-H460/MX20 cells assessed as inhibition of cell viability incubated for 2 hrs by MTT assay. In kind it is cell-based. The following applies: NCI-H460/MX20, 2 h.
Series [6] is described as follows: Metabolic stability in human liver microsomes assessed as compound remaining at 100 uM incubated for 1 hr by HPLC analysis. In kind it is ADME, Microsome. The settings on record: read-out: Stability.
In series [7] the test system is HEK293. The series can be described thus: Reversal of ABCG2 482-G2 mutant (unknown origin) expressed in HEK293 cells-mediated multidrug resistance assessed as potentiation of mitoxantrone-induced cytotoxicity at 5 uM pretreated for 2 hrs followed by mitoxantrone addition and measured after 44 hrs by MTT assay. The class given is cell-based. The following applies: Homo sapiens.

Series [8] has as its system HEK293. The series can be described thus: Reversal of ABCG2 482-T7 mutant (unknown origin) expressed in HEK293 cells-mediated multidrug resistance assessed as potentiation of mitoxantrone-induced cytotoxicity at 5 uM pretreated for 2 hrs followed by mitoxantrone addition and measured after 44 hrs by MTT assay. The following applies: Homo sapiens. In kind it is cell-based.

The target of series [9] is T1, Broad substrate specificity ATP-binding cassette transporter ABCG2. In words: Reversal of ABCG2-mediated multidrug resistance in human NCI-H460/MX20 cells assessed as potentiation of mitoxantrone-induced cytotoxicity by measuring inhibition of cell proliferation at 1 uM pretreated for 2 hrs followed by mitoxantrone addition and measured after 44 hrs by MTT assay (reference value: 24 +/- 3%). In kind it is cell-based.

The target is the same in series [10]. In words: Reversal of ABCG2-mediated multidrug resistance in human NCI-H460/MX20 cells assessed as potentiation of mitoxantrone-induced cytotoxicity by measuring inhibition of cell proliferation at 10 uM pretreated for 2 hrs followed by mitoxantrone addition and measured after 44 hrs by MTT assay (reference value: 24 +/- 3%). The settings on record: for inhibition (INH): 10 µM. In kind it is cell-based.

The target is the same in series [11]. The series can be described thus: Reversal of ABCG2-mediated multidrug resistance in human NCI-H460/MX20 cells assessed as potentiation of mitoxantrone-induced cytotoxicity by measuring inhibition of cell proliferation pretreated for 2 hrs followed by mitoxantrone addition and measured after 44 hrs by MTT assay. In kind it is cell-based.

For orientation: IC50 means the concentration needed to halve the response being measured. Broadly, the inhibition is how much of the control response was suppressed.

Active and inactive are the calls of the source. No cut-off for these calls is given here.

`O=C(c1ccc(O)cc1O)c1c[nH]c2ccc(O)cc12`: the Activity (in the series on NCI-H460 [1]; in series [2]) was 25 µM throughout. In series [3], the “inhibition (INH)” value is “Active”. Moreover, the IC50 (in the series on NCI-H460 [4] (read-out: IC50); in series [5]) was above 100 µM each time.

As to `COc1ccc2c3c([nH]c2c1)[C@H](CC(C)C)N1C(=O)[C@H](CCC(=O)OC(C)(C)C)NC(=O)[C@@H]1C3`, the remaining at 1 h, 100 µM in series [6] was determined as 23%. Besides, the result in the series with HEK293 [7] and in the series on HEK293 [8] was Active.

On to `COc1ccc(C(=O)c2c[nH]c3ccc(OC)cc23)c(OC)c1`, for which the Activity (in the series with NCI-H460 [1]; in series [2]) was 25 µM each time. Besides, the “inhibition (INH)” value in series [3] is recorded as “Active”. In addition, the IC50 (in the series with NCI-H460 [4] (read-out: IC50); in series [5]) was above 100 µM in each case.

As for `COc1ccc(C(=O)c2c(OC)ccc3cc(OC)ccc23)c(OC)c1`, the Activity (with NCI-H460 [1]; in [2]) was 10 µM each time. For the same molecule, the “inhibition (INH)” value in [3] is recorded as “Not Active”. In addition, the figures for the IC50 (with NCI-H460 [4] (read-out: IC50); in [5]) were 86.2 µM and 84 µM, respectively.

With `COc1ccc2[nH]cc(C(=O)c3c(OC)cccc3OC)c2c1`, the Activity (in the series on NCI-H460 [1]; in series [2]) was 1 µM in each case. In addition, in series [9], the “inhibition (INH)” value is “Active”. In addition, the IC50 (in the series with NCI-H460 [4] (read-out: IC50); in [5]) was above 100 µM each time.

For `COc1ccc(C(=O)c2c[nH]c3cccc(OC)c23)cc1`, the Activity (with NCI-H460 [1]; in series [2]) was 10 µM in each case. Moreover, the “inhibition (INH)” value in [10] is listed as “Active”. The IC50 (in the series on NCI-H460 [4] (read-out: IC50); in [5]) was above 100 µM in each case.

Consider `O=C(c1cccc(O)c1)c1c[nH]c2ccc(O)cc12`, for which the Activity (with NCI-H460 [1]; in series [2]) was 25 µM each time. Further, the IC50 (in the series with NCI-H460 [4] (read-out: IC50); in [5]) was above 100 µM each time.

For the molecule `O=C(c1ccc(O)cc1)c1c[nH]c2cccc(O)c12`, the Activity (in the series with NCI-H460 [1]; in [2]) was 25 µM throughout. Moreover, the inhibition at 25 µM in [3] is above 87%. In series [11], the “inhibition (INH)” value was “Dose-dependent effect”. Also, the IC50 (with NCI-H460 [4] (read-out: IC50); in series [5]) was above 100 µM throughout.

On to `COc1ccc(C(=O)c2c[nH]c3c(OC)cccc23)c(OC)c1`, for which the Activity (with NCI-H460 [1]; in series [2]) was 10 µM each time. Besides, the “inhibition (INH)” value in [10] is reported as “Active”. For the same molecule, the IC50 (in the series on NCI-H460 [4] (read-out: IC50); in series [5]) was above 100 µM each time.

As to `COc1cc(C(=O)c2c[nH]c3cccc(OC)c23)cc(OC)c1OC`, the Activity (in the series on NCI-H460 [1]; in series [2]) was 1 µM throughout. Moreover, the “inhibition (INH)” value in [9] was “Active”. In addition, the IC50 (in the series with NCI-H460 [4] (read-out: IC50); in [5]) was above 100 µM each time.

For `COc1ccc2[nH]cc(C(=O)c3cc(OC)c(OC)c(OC)c3)c2c1`, the Activity (with NCI-H460 [1]; in series [2]) was 1 µM in each case. For the same molecule, in series [9], the “inhibition (INH)” value is “Active”. The IC50 with NCI-H460 [4] (read-out: IC50) worked out at 4.9 µM; in [5], 5.82 µM.

As for `O=C(c1ccc(O)cc1O)c1c[nH]c2cccc(O)c12`, the Activity (with NCI-H460 [1]; in series [2]) was 25 µM throughout. For the same molecule, the inhibition at 25 µM in series [3] is above 87%. Further, the “inhibition (INH)” value in series [11] is reported as “Dose-dependent effect”. The IC50 (in the series on NCI-H460 [4] (read-out: IC50); in series [5]) was above 100 µM throughout.

With `O=C(c1ccc(O)cc1O)c1c[nH]c2c(O)cccc12`, the Activity (with NCI-H460 [1]; in series [2]) was 10 µM in each case. Besides, the IC50 (with NCI-H460 [4] (read-out: IC50); in series [5]) was above 100 µM in each case.

`COc1ccc(C(=O)c2c[nH]c3cccc(OC)c23)c(OC)c1`: the Activity (with NCI-H460 [1]; in series [2]) was 25 µM throughout. Moreover, in [3], the “inhibition (INH)” value is “Active”. Further, the half-maximal inhibitory concentration (IC50) (in the series on NCI-H460 [4] (read-out: IC50); in [5]) was above 100 µM throughout.

For `COc1ccc2[nH]cc(C(=O)c3ccccc3OC)c2c1`, the Activity (with NCI-H460 [1]; in series [2]) was 1 µM each time. Besides, the “inhibition (INH)” value in series [9] is “Active”. Moreover, the results for the IC50 (with NCI-H460 [4] (read-out: IC50); in [5]) were 46.2 µM and 61.9 µM, respectively.

On to `COc1ccc(C(=O)c2ccc3[nH]cc(C(=O)c4ccc(OC)cc4OC)c3c2OC)c(OC)c1`, for which the Activity (in the series on NCI-H460 [1]; in series [2]) was 25 µM throughout. Also, the inhibition at 25 µM in [3] was above 87%. Further, in [11], the “inhibition (INH)” value is recorded as “Dose-dependent effect”. Also, the IC50 with NCI-H460 [4] (read-out: IC50) is above 100 µM; in series [5] it was 68.7 µM.

Consider `O=C(c1ccccc1O)c1c[nH]c2ccc(O)cc12`, for which the Activity (with NCI-H460 [1]; in series [2]) was 25 µM throughout. In addition, the inhibition at 25 µM in series [3] is above 87%. Moreover, the “inhibition (INH)” value in series [11] is “Dose-dependent effect”. In addition, the concentration for half-maximal inhibition (IC50) (in the series on NCI-H460 [4] (read-out: IC50); in [5]) was above 100 µM in each case.

`O=C(c1ccc(O)cc1)c1ccc2[nH]cc(C(=O)c3ccc(O)cc3)c2c1O`: the Activity (in the series with NCI-H460 [1]; in [2]) was 25 µM each time. In addition, the IC50 (in the series with NCI-H460 [4] (read-out: IC50); in series [5]) was above 100 µM each time.

`O=C(c1c(O)cccc1O)c1c[nH]c2ccc(O)cc12`: the Activity (in the series with NCI-H460 [1]; in [2]) was 10 µM each time. Moreover, the IC50 (with NCI-H460 [4] (read-out: IC50); in series [5]) was above 100 µM each time.

As to `COc1cccc(C(=O)c2c[nH]c3ccc(OC)cc23)c1`, the Activity (with NCI-H460 [1]; in series [2]) was 10 µM in each case. The inhibition at 10 µM in series [10] was above 87%. Besides, in series [11], the “inhibition (INH)” value was “Dose-dependent effect”. In addition, the results for the IC50 (in the series on NCI-H460 [4] (read-out: IC50); in series [5]) were above 100 µM and 53.2 µM, respectively.

As for `O=C(c1cc(O)c(O)c(O)c1)c1c[nH]c2cccc(O)c12`, the Activity (with NCI-H460 [1]; in series [2]) was 25 µM throughout. Moreover, the IC50 (in the series on NCI-H460 [4] (read-out: IC50); in [5]) was above 100 µM throughout.

Consider `O=C(c1ccc(O)cc1)c1c[nH]c2ccc(O)cc12`, for which the Activity (in the series on NCI-H460 [1]; in series [2]) was 25 µM in each case. In addition, the “inhibition (INH)” value in series [3] is listed as “Active”. The IC50 (in the series on NCI-H460 [4] (read-out: IC50); in series [5]) was above 100 µM throughout.

As to `O=C(c1cc(O)c(O)c(O)c1)c1c[nH]c2ccc(O)cc12`, the Activity (in the series with NCI-H460 [1]; in [2]) was 25 µM throughout. The IC50 (in the series on NCI-H460 [4] (read-out: IC50); in series [5]) was above 100 µM in each case.

`O=C1c2c(O)ccc(O)c2C(=O)c2c(NCCNCCO)ccc(NCCNCCO)c21` [MITOXANTRONE]: the IC50 in the series on NCI-H460 [4] was determined as 0.36 µM; in series [5], 40.6 µM.

Source of the values: ChEMBL document CHEMBL4351028, “Benzoyl indoles with metabolic stability as reversal agents for ABCG2-mediated multidrug resistance” (Eur J Med Chem, 2019).
